The values that follow come from ChEMBL document CHEMBL5303573, “Mapping human microbiome drug metabolism by gut bacteria and their genes” (Nature, 2019).

The conditions of the first data set: bacteroides stercoris, 12 h, 2 µM.
Description: The drug is tested on Bacteroides stercoris strain: ATCC43183 for biotransformation. The drug concentrations were measured before and after a 12-h incubation by liquid-chromatography-coupled mass spectrometry (LC–MS)
Consider `CCCCCCOC(=O)/N=C(/N)c1ccc(NCc2nc3cc(C(=O)N(CCC(=O)OCC)c4ccccn4)ccc3n2C)cc1.CS(=O)(=O)O` [DABIGATRAN ETEXILATE MESYLATE], for which the “Bacterial Biotransformation” value is given as “Compound NOT metabolized”.

With `COc1ccc(CN2CCNCC2)c(OC)c1OC.Cl.Cl` [TRIMETAZIDINE DIHYDROCHLORIDE], the “Bacterial Biotransformation” value is listed as “Compound metabolized”.

The next data set is described as follows: The drug is tested on Edwardsiella tarda strain: ATCC23685 for biotransformation. The drug concentrations were measured before and after a 12-h incubation by liquid-chromatography-coupled mass spectrometry (LC–MS). Conditions: 2 µM.
For `CCCCCCOC(=O)/N=C(/N)c1ccc(NCc2nc3cc(C(=O)N(CCC(=O)OCC)c4ccccn4)ccc3n2C)cc1.CS(=O)(=O)O` [DABIGATRAN ETEXILATE MESYLATE], the “Bacterial Biotransformation” value was “Compound NOT metabolized”.

Take `COc1ccc(CN2CCNCC2)c(OC)c1OC.Cl.Cl` [TRIMETAZIDINE DIHYDROCHLORIDE]: the “Bacterial Biotransformation” value is given as “Compound NOT metabolized”.

A further data set in a line: The drug is tested on Collinsella intestinalis strain: DSM13280 for biotransformation. The drug concentrations were measured before and after a 12-h incubation by liquid-chromatography-coupled mass spectrometry (LC–MS). Particulars: 2 µM.
`CCCCCCOC(=O)/N=C(/N)c1ccc(NCc2nc3cc(C(=O)N(CCC(=O)OCC)c4ccccn4)ccc3n2C)cc1.CS(=O)(=O)O` [DABIGATRAN ETEXILATE MESYLATE]: the “Bacterial Biotransformation” value is given as “Compound NOT metabolized”.

On to `COc1ccc(CN2CCNCC2)c(OC)c1OC.Cl.Cl` [TRIMETAZIDINE DIHYDROCHLORIDE], for which the “Bacterial Biotransformation” value is listed as “Compound NOT metabolized”.

The conditions of the next data set: enterocloster bolteae, 12 h, 2 µM.
Description: The drug is tested on Clostridium bolteae strain: ATCCBAA-613 for biotransformation. The drug concentrations were measured before and after a 12-h incubation by liquid-chromatography-coupled mass spectrometry (LC–MS)
Take `CCCCCCOC(=O)/N=C(/N)c1ccc(NCc2nc3cc(C(=O)N(CCC(=O)OCC)c4ccccn4)ccc3n2C)cc1.CS(=O)(=O)O` [DABIGATRAN ETEXILATE MESYLATE]: the “Bacterial Biotransformation” value was “Compound NOT metabolized”.

With `COc1ccc(CN2CCNCC2)c(OC)c1OC.Cl.Cl` [TRIMETAZIDINE DIHYDROCHLORIDE], the “Bacterial Biotransformation” value is reported as “Compound NOT metabolized”.

The conditions of another data set: bacteroides thetaiotaomicron, 12 h, 2 µM.
Description: The drug is tested on Bacteroides thetaiotaomicron strain: 7330 for biotransformation. The drug concentrations were measured before and after a 12-h incubation by liquid-chromatography-coupled mass spectrometry (LC–MS)
With `CCCCCCOC(=O)/N=C(/N)c1ccc(NCc2nc3cc(C(=O)N(CCC(=O)OCC)c4ccccn4)ccc3n2C)cc1.CS(=O)(=O)O` [DABIGATRAN ETEXILATE MESYLATE], the “Bacterial Biotransformation” value is “Compound NOT metabolized”.

Regarding `COc1ccc(CN2CCNCC2)c(OC)c1OC.Cl.Cl` [TRIMETAZIDINE DIHYDROCHLORIDE], the “Bacterial Biotransformation” value is on record as “Compound metabolized”.

The nature of the next data set: The drug is tested on Bacteroides sp. WH2 strain: WH2 for biotransformation. The drug concentrations were measured before and after a 12-h incubation by liquid-chromatography-coupled mass spectrometry (LC–MS). Conditions: bacteroides sp. wh2, 12 h, 2 µM.
For `CCCCCCOC(=O)/N=C(/N)c1ccc(NCc2nc3cc(C(=O)N(CCC(=O)OCC)c4ccccn4)ccc3n2C)cc1.CS(=O)(=O)O` [DABIGATRAN ETEXILATE MESYLATE], the “Bacterial Biotransformation” value was “Compound NOT metabolized”.

For `COc1ccc(CN2CCNCC2)c(OC)c1OC.Cl.Cl` [TRIMETAZIDINE DIHYDROCHLORIDE], the “Bacterial Biotransformation” value is given as “Compound metabolized”.

Another data set in a line: The drug is tested on Bifidobacterium longum subsp. Infantis strain: CCUG52486 for biotransformation. The drug concentrations were measured before and after a 12-h incubation by liquid-chromatography-coupled mass spectrometry (LC–MS). Conditions: 2 µM.
On to `CCCCCCOC(=O)/N=C(/N)c1ccc(NCc2nc3cc(C(=O)N(CCC(=O)OCC)c4ccccn4)ccc3n2C)cc1.CS(=O)(=O)O` [DABIGATRAN ETEXILATE MESYLATE], for which the “Bacterial Biotransformation” value is recorded as “Compound NOT metabolized”.

As to `COc1ccc(CN2CCNCC2)c(OC)c1OC.Cl.Cl` [TRIMETAZIDINE DIHYDROCHLORIDE], the “Bacterial Biotransformation” value is reported as “Compound metabolized”.

The next data set in a line: The drug is tested on Providencia stuartii strain: ATCC25827 for biotransformation. The drug concentrations were measured before and after a 12-h incubation by liquid-chromatography-coupled mass spectrometry (LC–MS). Particulars: 2 µM.
`CCCCCCOC(=O)/N=C(/N)c1ccc(NCc2nc3cc(C(=O)N(CCC(=O)OCC)c4ccccn4)ccc3n2C)cc1.CS(=O)(=O)O` [DABIGATRAN ETEXILATE MESYLATE]: the “Bacterial Biotransformation” value is “Compound NOT metabolized”.

Turning to `COc1ccc(CN2CCNCC2)c(OC)c1OC.Cl.Cl` [TRIMETAZIDINE DIHYDROCHLORIDE], the “Bacterial Biotransformation” value is on record as “Compound NOT metabolized”.

Another data set is described as follows: The drug is tested on Collinsella aerofaciens strain: ATCC25986 for biotransformation. The drug concentrations were measured before and after a 12-h incubation by liquid-chromatography-coupled mass spectrometry (LC–MS). Particulars: 2 µM.
As to `CCCCCCOC(=O)/N=C(/N)c1ccc(NCc2nc3cc(C(=O)N(CCC(=O)OCC)c4ccccn4)ccc3n2C)cc1.CS(=O)(=O)O` [DABIGATRAN ETEXILATE MESYLATE], the “Bacterial Biotransformation” value is listed as “Compound NOT metabolized”.

As to `COc1ccc(CN2CCNCC2)c(OC)c1OC.Cl.Cl` [TRIMETAZIDINE DIHYDROCHLORIDE], the “Bacterial Biotransformation” value is given as “Compound NOT metabolized”.

A further data set can be described thus: The drug is tested on Parabacteroides merdae strain: ATCC43184 for biotransformation. The drug concentrations were measured before and after a 12-h incubation by liquid-chromatography-coupled mass spectrometry (LC–MS). Particulars: 2 µM.
Take `CCCCCCOC(=O)/N=C(/N)c1ccc(NCc2nc3cc(C(=O)N(CCC(=O)OCC)c4ccccn4)ccc3n2C)cc1.CS(=O)(=O)O` [DABIGATRAN ETEXILATE MESYLATE]: the “Bacterial Biotransformation” value was “Compound NOT metabolized”.

`COc1ccc(CN2CCNCC2)c(OC)c1OC.Cl.Cl` [TRIMETAZIDINE DIHYDROCHLORIDE]: the “Bacterial Biotransformation” value is recorded as “Compound metabolized”.

The next data set in a line: The drug is tested on Bacteroides pectinophilus strain: ATCC43243 for biotransformation. The drug concentrations were measured before and after a 12-h incubation by liquid-chromatography-coupled mass spectrometry (LC–MS). Particulars: 2 µM.
For `CCCCCCOC(=O)/N=C(/N)c1ccc(NCc2nc3cc(C(=O)N(CCC(=O)OCC)c4ccccn4)ccc3n2C)cc1.CS(=O)(=O)O` [DABIGATRAN ETEXILATE MESYLATE], the “Bacterial Biotransformation” value is “Compound NOT metabolized”.

For `COc1ccc(CN2CCNCC2)c(OC)c1OC.Cl.Cl` [TRIMETAZIDINE DIHYDROCHLORIDE], the “Bacterial Biotransformation” value is listed as “Compound NOT metabolized”.

The conditions of another data set: bacteroides eggerthii, 12 h, 2 µM.
Description: The drug is tested on Bacteroides eggerthii strain: DSM20697 for biotransformation. The drug concentrations were measured before and after a 12-h incubation by liquid-chromatography-coupled mass spectrometry (LC–MS)
Take `CCCCCCOC(=O)/N=C(/N)c1ccc(NCc2nc3cc(C(=O)N(CCC(=O)OCC)c4ccccn4)ccc3n2C)cc1.CS(=O)(=O)O` [DABIGATRAN ETEXILATE MESYLATE]: the “Bacterial Biotransformation” value was “Compound NOT metabolized”.

Turning to `COc1ccc(CN2CCNCC2)c(OC)c1OC.Cl.Cl` [TRIMETAZIDINE DIHYDROCHLORIDE], the “Bacterial Biotransformation” value was “Compound NOT metabolized”.

For a further data set the following is noted: bacteroides intestinalis, 12 h, 2 µM.
Description: The drug is tested on Bacteroides intestinalis strain: DSM17393 for biotransformation. The drug concentrations were measured before and after a 12-h incubation by liquid-chromatography-coupled mass spectrometry (LC–MS)
Regarding `CCCCCCOC(=O)/N=C(/N)c1ccc(NCc2nc3cc(C(=O)N(CCC(=O)OCC)c4ccccn4)ccc3n2C)cc1.CS(=O)(=O)O` [DABIGATRAN ETEXILATE MESYLATE], the “Bacterial Biotransformation” value is reported as “Compound NOT metabolized”.

On to `COc1ccc(CN2CCNCC2)c(OC)c1OC.Cl.Cl` [TRIMETAZIDINE DIHYDROCHLORIDE], for which the “Bacterial Biotransformation” value was “Compound metabolized”.

The conditions of a further data set: limosilactobacillus reuteri cf48-3a, 12 h, 2 µM.
Description: The drug is tested on Lactobacillus reuteri CF48-3A strain: BEI HM-102 for biotransformation. The drug concentrations were measured before and after a 12-h incubation by liquid-chromatography-coupled mass spectrometry (LC–MS)
Regarding `CCCCCCOC(=O)/N=C(/N)c1ccc(NCc2nc3cc(C(=O)N(CCC(=O)OCC)c4ccccn4)ccc3n2C)cc1.CS(=O)(=O)O` [DABIGATRAN ETEXILATE MESYLATE], the “Bacterial Biotransformation” value was “Compound NOT metabolized”.

As to `COc1ccc(CN2CCNCC2)c(OC)c1OC.Cl.Cl` [TRIMETAZIDINE DIHYDROCHLORIDE], the “Bacterial Biotransformation” value is “Compound NOT metabolized”.

The next data set can be described thus: The drug is tested on Anaerococcus hydrogenalis strain: DSM7454 for biotransformation. The drug concentrations were measured before and after a 12-h incubation by liquid-chromatography-coupled mass spectrometry (LC–MS). Conditions: 2 µM.
With `CCCCCCOC(=O)/N=C(/N)c1ccc(NCc2nc3cc(C(=O)N(CCC(=O)OCC)c4ccccn4)ccc3n2C)cc1.CS(=O)(=O)O` [DABIGATRAN ETEXILATE MESYLATE], the “Bacterial Biotransformation” value is “Compound NOT metabolized”.

With `COc1ccc(CN2CCNCC2)c(OC)c1OC.Cl.Cl` [TRIMETAZIDINE DIHYDROCHLORIDE], the “Bacterial Biotransformation” value was “Compound NOT metabolized”.

The next data set in a line: The drug is tested on Clostridium asparagiforme strain: DSM15981 for biotransformation. The drug concentrations were measured before and after a 12-h incubation by liquid-chromatography-coupled mass spectrometry (LC–MS). It counts as ADME. Set-up: dose 2 uM, timepoint 0 vs 12 hours. Particulars: enterocloster asparagiformis, 2 µM.
For the compound `CCCCCCOC(=O)/N=C(/N)c1ccc(NCc2nc3cc(C(=O)N(CCC(=O)OCC)c4ccccn4)ccc3n2C)cc1.CS(=O)(=O)O` [DABIGATRAN ETEXILATE MESYLATE], the “Bacterial Biotransformation” value was “Compound NOT metabolized”.

Regarding `COc1ccc(CN2CCNCC2)c(OC)c1OC.Cl.Cl` [TRIMETAZIDINE DIHYDROCHLORIDE], the “Bacterial Biotransformation” value is listed as “Compound metabolized”.

A short description of another data set: The drug is tested on Ruminococcus gnavus strain: ATCC29149 for biotransformation. The drug concentrations were measured before and after a 12-h incubation by liquid-chromatography-coupled mass spectrometry (LC–MS). Conditions: mediterraneibacter gnavus, 2 µM.
For the compound `CCCCCCOC(=O)/N=C(/N)c1ccc(NCc2nc3cc(C(=O)N(CCC(=O)OCC)c4ccccn4)ccc3n2C)cc1.CS(=O)(=O)O` [DABIGATRAN ETEXILATE MESYLATE], the “Bacterial Biotransformation” value is reported as “Compound NOT metabolized”.

As to `COc1ccc(CN2CCNCC2)c(OC)c1OC.Cl.Cl` [TRIMETAZIDINE DIHYDROCHLORIDE], the “Bacterial Biotransformation” value is “Compound NOT metabolized”.

A further data set in a line: The drug is tested on Bacteroides coprophilus strain: DSM18228 for biotransformation. The drug concentrations were measured before and after a 12-h incubation by liquid-chromatography-coupled mass spectrometry (LC–MS). Particulars: 2 µM.
Consider `CCCCCCOC(=O)/N=C(/N)c1ccc(NCc2nc3cc(C(=O)N(CCC(=O)OCC)c4ccccn4)ccc3n2C)cc1.CS(=O)(=O)O` [DABIGATRAN ETEXILATE MESYLATE], for which the “Bacterial Biotransformation” value was “Compound NOT metabolized”.

As for `COc1ccc(CN2CCNCC2)c(OC)c1OC.Cl.Cl` [TRIMETAZIDINE DIHYDROCHLORIDE], the “Bacterial Biotransformation” value was “Compound metabolized”.

A further data set in a line: The drug is tested on Bacteroides dorei strain: DSM17855 for biotransformation. The drug concentrations were measured before and after a 12-h incubation by liquid-chromatography-coupled mass spectrometry (LC–MS). Conditions: phocaeicola dorei, 2 µM.
For `CCCCCCOC(=O)/N=C(/N)c1ccc(NCc2nc3cc(C(=O)N(CCC(=O)OCC)c4ccccn4)ccc3n2C)cc1.CS(=O)(=O)O` [DABIGATRAN ETEXILATE MESYLATE], the “Bacterial Biotransformation” value is recorded as “Compound NOT metabolized”.

Take `COc1ccc(CN2CCNCC2)c(OC)c1OC.Cl.Cl` [TRIMETAZIDINE DIHYDROCHLORIDE]: the “Bacterial Biotransformation” value is listed as “Compound metabolized”.
